Data reported in US6310210A, “Camptothecin derivatives” (Kabushiki Kaisha Yakult Honsha, priority 1997, dated 2001).
≈ marks a conversion by molar mass, not a printed value. Where a name gives a salt, the structure may show the parent alone. Values belong to the molecule of their own block, whether it stands above or below them.

Key:
[1] = Stability test in water at each pH (phosphate buffer, HPLC); format: physicochemical; settings: for Amount of the compound in test solution: room temperature (about 26° C.)
Method: 1) Preparation of calibration curve:
1.05 mg of the compound 1 and 1.10 mg of the compound A (Note) were measured, dissolved in acetonitrile 10 ml to give a standard solution. 20 μl of the standard solution was tested by HPLC method (procedure condition 1). The peak area of the compound 1 and the compound A (Note), which is obtained from the chromatograph of the standard solution is measured by an automatic integration method, and the obtained area is plotted against an amount of the compound 1 and the compound A (2.1 μg and 2.2 μg) by 20 μl to prepare a calibration curve.
[HPLC method, procedure condition 1]
Column: Inertsil ODS-3 (5-250), 40 deg.
Mobile phase: 0.01 M potassium dihydrogenphosphate-acetonitrile (3:1)
Detection: UV absorptiometer (254 nm)
About 1 mg (×3) of the compound 1 were measured, dissolved adding a phosphate buffer 10 ml of pH 10.0, 7.0 or 5.4, stirred at room temperature (about 26° C.) to make a test solution. As to each 20 μl of the test solution at the time of dissolution, 3 hr later and 24 hr later, the tests were carried out by the HPLC method (procedure condition 1). The amounts of the compound 1 were measured from the obtained area. The amounts of the compound A in each pH were measured.
The amounts (μg/ml) of the compound 1 and the compound A at the time of dissolution, 3 hr later and 24 hr later in each pH are shown in Table 7.

[2] = Solubility of each hydrochloride in purified water; format: physicochemical
Method: A corresponding camptothecin-21-(2-dimethylamino) ethylamide derivative (100-200 mg) was added with an aqueous 0.1 N HCl solution (1.05 eq.) and dissolved, if necessary, further by adding purified water. The solution was filtered using MILLEX-GV ([…] Filter Unit), and the filtrate was lyophilized to give the desired hydrochloride.
Table 1: Solubility of each hydrochloride in purified water

mouse leukemia L1210 = assay: Anti-tumor activity: life prolonging effect in mice transplanted intraperitoneally with mouse leukemia L1210 (T/C%); format: in vivo; settings: for Anti-tumor activity (T/C%): i.p. day 1, 5 and 9; for Anti-tumor activity: fraction in parentheses after T/C% (meaning not given): group of six mice
Method: 5×10^5 cells of mouse leukemia L1210 were transplanted intraperitoneally to a group of six female CDP1 mice (7 weeks old, body weight 17-19 g). A test substance was administered intraperitoneally on day 1, 5 and 9, and its life prolonging effect was observed. In a case of the administration of a test substance as an acid addition salt, it was dissolved in purified water. The total administration amount was 1.56-400 mg/kg. The anti-tumor activity was expressed by the value (T/C%) in which the ratio of the mean survival days of a drug administered group (T) to the mean survival days of a not administered group (C) is multiplied by 100.

Compound: CCc1c2c(nc3ccccc13)-c1cc([C@@](O)(CC)C(=O)NCCN(C)C)c(COC(C)=O)c(=O)n1C2 [Compound A, 7-Ethyl-17-acetoxycamptothecin-21-(2-dimethylamino)ethylamide hydrochloride, reference compound]
Amount of the compound in test solution ([1]; pH 5.4, 3 hr later): 126 µg/mL
Amount of the compound in test solution ([1]; pH 5.4, 24 hr later): 124 µg/mL
Amount of the compound in test solution ([1]; pH 5.4, at the time of dissolution): 126 µg/mL
Amount of the compound in test solution ([1]; pH 7.0, 3 hr later): 110 µg/mL
Amount of the compound in test solution ([1]; pH 7.0, 24 hr later): 107 µg/mL
Amount of the compound in test solution ([1]; pH 7.0, at the time of dissolution): 110 µg/mL
Amount of the compound in test solution ([1]; pH 10.0, 3 hr later): 79 µg/mL
Amount of the compound in test solution ([1]; pH 10.0, 24 hr later): 16 µg/mL
Amount of the compound in test solution ([1]; pH 10.0, at the time of dissolution): 102 µg/mL
degraded at 24 h ([1]; phosphate buffer, pH 10.0, after 24 hr, read-out: hydrolyzed in the aqueous solution): 84%

solubility [2]: ≥ 52 mg/mL
Compound: CCCOC(=O)OCc1c([C@@](O)(CC)C(=O)NCCN(C)C)cc2n(c1=O)Cc1c-2nc2ccccc2c1CC [Compound 20, 7-Ethyl-17-n-propoxycarbonyloxycamptothecin-21-(2-dimethylamino)ethylamide]

solubility [2]: ~53 mg/mL (≈ 94 mM)
Compound: CCc1c2c(nc3ccccc13)-c1cc([C@@](O)(CC)C(=O)NCCN(C)C)c(COC(=O)N(CC)CC)c(=O)n1C2 [Compound 15, 17-Diethylcarbamoyloxy-7-ethylcamptothecin-21-(2-dimethylamino)ethylamide]

solubility [2]: ~7 mg/mL (≈ 11.6 mM)
Compound: CCc1c2c(nc3ccccc13)-c1cc([C@@](O)(CC)C(=O)NCCN(C)C)c(COC(=O)Nc3ccc(F)cc3)c(=O)n1C2 [Compound 10, 7-Ethyl-17-(4-fluorophenylcarbamoyloxy)-camptothecin-21-(2-dimethylamino)ethylamide]
Anti-tumor activity (T/C%) (mouse leukemia L1210; Table 4, total dose 3.13 mg/kg): 115%
Anti-tumor activity (T/C%) (mouse leukemia L1210; Table 4, total dose 6.25 mg/kg): 118%
Anti-tumor activity (T/C%) (mouse leukemia L1210; Table 4, total dose 12.5 mg/kg): 123%
Anti-tumor activity (T/C%) (mouse leukemia L1210; Table 4, total dose 25 mg/kg): 136%
Anti-tumor activity (T/C%) (mouse leukemia L1210; Table 4, total dose 50 mg/kg): 174%
Anti-tumor activity (T/C%) (mouse leukemia L1210; Table 4, total dose 100 mg/kg): 221%
Anti-tumor activity (T/C%) (mouse leukemia L1210; Table 4, total dose 200 mg/kg): 310%

Compound: CCc1c2c(nc3ccccc13)-c1cc(C(O)(CC)C(=O)[O-])c(CO)c(=O)n1C2.[Na+] (stereo not drawn) [Reference Compound, 7-ethylcamptothecin sodium salt, reference compound]
Anti-tumor activity (T/C%) (mouse leukemia L1210; Table 2, total dose 3.13 mg/kg): 129%
Anti-tumor activity (T/C%) (mouse leukemia L1210; Table 2, total dose 6.25 mg/kg): 142%
Anti-tumor activity (T/C%) (mouse leukemia L1210; Table 2, total dose 12.5 mg/kg): 153%
Anti-tumor activity (T/C%) (mouse leukemia L1210; Table 2, total dose 25 mg/kg): 211%
Anti-tumor activity (T/C%) (mouse leukemia L1210; Table 2, total dose 50 mg/kg): 266%
Anti-tumor activity: fraction in parentheses after T/C% (meaning not given) (mouse leukemia L1210; Table 2, total dose 100 mg/kg): 2/6
Anti-tumor activity (T/C%) (mouse leukemia L1210; Table 2, total dose 100 mg/kg): 339%
Anti-tumor activity: fraction in parentheses after T/C% (meaning not given) (mouse leukemia L1210; Table 2, total dose 200 mg/kg): 1/6
Anti-tumor activity (T/C%) (mouse leukemia L1210; Table 2, total dose 200 mg/kg): 303%
Anti-tumor activity (T/C%) (mouse leukemia L1210; Table 4, total dose 3.13 mg/kg): 126%
Anti-tumor activity (T/C%) (mouse leukemia L1210; Table 4, total dose 6.25 mg/kg): 146%
Anti-tumor activity (T/C%) (mouse leukemia L1210; Table 4, total dose 12.5 mg/kg): 151%
Anti-tumor activity (T/C%) (mouse leukemia L1210; Table 4, total dose 25 mg/kg): 215%
Anti-tumor activity (T/C%) (mouse leukemia L1210; Table 4, total dose 50 mg/kg): 249%
Anti-tumor activity: fraction in parentheses after T/C% (meaning not given) (mouse leukemia L1210; Table 4, total dose 100 mg/kg): 4/6
Anti-tumor activity (T/C%) (mouse leukemia L1210; Table 4, total dose 100 mg/kg): 513%
Anti-tumor activity: fraction in parentheses after T/C% (meaning not given) (mouse leukemia L1210; Table 4, total dose 200 mg/kg): 1/6
Anti-tumor activity (T/C%) (mouse leukemia L1210; Table 4, total dose 200 mg/kg): 362%

solubility [2]: ~11 mg/mL (≈ 18.3 mM)
Compound: CCc1c2c(nc3ccccc13)-c1cc([C@@](O)(CC)C(=O)NCCN(C)C)c(COC(=O)Nc3ccccc3F)c(=O)n1C2 [Compound 8, 7-Ethyl-17-(2-fluorophenylcarbamoyloxy)-camptothecin-21-(2-dimethylamino)ethylamide]

Compound: CCCCOC(=O)OCc1c([C@@](O)(CC)C(=O)NCCN(C)C)cc2n(c1=O)Cc1c-2nc2ccccc2c1CC [Compound 21, 17-n-Butoxycarbonyloxy-7-ethyl-camptothecin-21-(2l-dimethylamino)ethylamide]
solubility [2]: ≥ 54 mg/mL

solubility [2]: ≥ 52 mg/mL
Compound: CCOC(=O)OCc1c([C@@](O)(CC)C(=O)NCCN(C)C)cc2n(c1=O)Cc1c-2nc2ccccc2c1CC [Compound 19, 7-Ethyl-17-ethoxycarbonyloxycamptothecin-21-(2-dimethylamino)ethylamide]

solubility [2]: ~10 mg/mL (≈ 17.7 mM)
Compound: CCCCNC(=O)OCc1c([C@@](O)(CC)C(=O)NCCN(C)C)cc2n(c1=O)Cc1c-2nc2ccccc2c1CC [Compound 5, 17-n-Butylcarbamoyloxy-7-ethylcamptothecin-21-(2-dimethylamino)ethylamide]

solubility [2]: ≥ 50 mg/mL
Compound: CCc1c2c(nc3ccccc13)-c1cc([C@@](O)(CC)C(=O)NCCN(C)C)c(COC(=O)OC)c(=O)n1C2 [Compound 18, 7-Ethyl-17-methoxycarbonyloxycamptothecin-21-(2-dimethylamino)ethylamide]

solubility [2]: ~50 mg/mL (≈ 93.3 mM)
Compound: CCc1c2c(nc3ccccc13)-c1cc([C@@](O)(CC)C(=O)NCCN(C)C)c(COC(=O)N(C)C)c(=O)n1C2 [Compound 14, 17-Dimethylcarbamoyloxy-7-ethylcamptothecin-21-(2-dimethylamino)ethylamide]
Anti-tumor activity (T/C%) (mouse leukemia L1210; Table 4, total dose 3.13 mg/kg): 118%
Anti-tumor activity (T/C%) (mouse leukemia L1210; Table 4, total dose 6.25 mg/kg): 121%
Anti-tumor activity (T/C%) (mouse leukemia L1210; Table 4, total dose 12.5 mg/kg): 126%
Anti-tumor activity (T/C%) (mouse leukemia L1210; Table 4, total dose 25 mg/kg): 136%
Anti-tumor activity (T/C%) (mouse leukemia L1210; Table 4, total dose 50 mg/kg): 149%
Anti-tumor activity (T/C%) (mouse leukemia L1210; Table 4, total dose 100 mg/kg): 218%
Anti-tumor activity: fraction in parentheses after T/C% (meaning not given) (mouse leukemia L1210; Table 4, total dose 200 mg/kg): 4/6
Anti-tumor activity (T/C%) (mouse leukemia L1210; Table 4, total dose 200 mg/kg): 523%

solubility [2]: ~15 mg/mL (≈ 25.7 mM)
Compound: CCc1c2c(nc3ccccc13)-c1cc([C@@](O)(CC)C(=O)NCCN(C)C)c(COC(=O)Nc3ccccc3)c(=O)n1C2 [Compound 7, 7-Ethyl-17-phenylcarbamoyloxycamptothecin-21-(2-dimethylamino)ethylamide]

solubility [2]: ~28 mg/mL (≈ 46.5 mM)
Compound: CCc1c2c(nc3ccccc13)-c1cc([C@@](O)(CC)C(=O)NCCN(C)C)c(COC(=O)Nc3cccc(F)c3)c(=O)n1C2 [Compound 9, 7-Ethyl-17-(3-fluorophenylcarbamoyloxy)-camptothecin-21-(2-dimethylamino)ethylamide]

solubility [2]: ≥ 33 mg/mL
Compound: CCc1c2c(nc3ccccc13)-c1cc([C@@](O)(CC)C(=O)NCCN(C)C)c(COC(=O)N3CCN(CC(=O)NC(C)C)CC3)c(=O)n1C2 [Compound 16, 7-Ethyl-17-(4-isopropylaminocarbonylmethyl-piperazino)-carbamoyloxy-camptothecin-21-(2-dimethylamino)ethylamide]

solubility [2]: ~50 mg/mL (≈ 84.8 mM)
Compound: CCc1c2c(nc3ccccc13)-c1cc([C@@](O)(CC)C(=O)NCCN(C)C)c(COC(=O)NC3CCCCC3)c(=O)n1C2 [Compound 6, 7-Ethyl-17-c-hexylcarbamoyloxycamptothecin-21-(2-dimethylamino)ethylamide]

solubility [2]: ~14 mg/mL (≈ 26.1 mM)
Compound: CCNC(=O)OCc1c([C@@](O)(CC)C(=O)NCCN(C)C)cc2n(c1=O)Cc1c-2nc2ccccc2c1CC [Compound 2, 7-Ethyl-17-ethylcarbamoyloxycamptothecin-21-(2-dimethylamino)ethylamide]

solubility [2]: ~11 mg/mL (≈ 20 mM)
Compound: CCCNC(=O)OCc1c([C@@](O)(CC)C(=O)NCCN(C)C)cc2n(c1=O)Cc1c-2nc2ccccc2c1CC [Compound 3, 7-Ethyl-17-n-propylcarbamoyloxycamptothecin-21-(2-dimethylamino)ethylamide]
Anti-tumor activity (T/C%) (mouse leukemia L1210; Table 2, total dose 3.13 mg/kg): 100%
Anti-tumor activity (T/C%) (mouse leukemia L1210; Table 2, total dose 6.25 mg/kg): 100%
Anti-tumor activity (T/C%) (mouse leukemia L1210; Table 2, total dose 12.5 mg/kg): 139%
Anti-tumor activity (T/C%) (mouse leukemia L1210; Table 2, total dose 25 mg/kg): 142%
Anti-tumor activity (T/C%) (mouse leukemia L1210; Table 2, total dose 50 mg/kg): 147%
Anti-tumor activity (T/C%) (mouse leukemia L1210; Table 2, total dose 100 mg/kg): 147%
Anti-tumor activity (T/C%) (mouse leukemia L1210; Table 2, total dose 200 mg/kg): 147%

solubility [2]: ~5 mg/mL (≈ 7.89 mM)
Compound: CCc1c2c(nc3ccccc13)-c1cc([C@@](O)(CC)C(=O)NCCN(C)C)c(COC(=O)Nc3cccc4ccccc34)c(=O)n1C2 [Compound 11, 7-Ethyl-17-(1-naphthylcarbamoyloxy)-camptothecin-21-(2-dimethylamino)ethylamide]
